According to patent US5306824A, “Biotinylated isocoumarins” (Georgia Tech Research Corporation, priority 1992, dated 1994):
Values belong to the compound of their own block, whether it stands above or below them.

How the values were obtained:
[1] = molecular target: T1, human recombinant (HR) granzyme A (Homo sapiens, UniProt P12544); assay: Inactivation of human recombinant granzyme A by biotin-isocoumarins (incubation method); format: biochemical; conditions: inhibitor 160-210 μM, pH 7.5, 25° C.
T1 sequence (P12544 29-262): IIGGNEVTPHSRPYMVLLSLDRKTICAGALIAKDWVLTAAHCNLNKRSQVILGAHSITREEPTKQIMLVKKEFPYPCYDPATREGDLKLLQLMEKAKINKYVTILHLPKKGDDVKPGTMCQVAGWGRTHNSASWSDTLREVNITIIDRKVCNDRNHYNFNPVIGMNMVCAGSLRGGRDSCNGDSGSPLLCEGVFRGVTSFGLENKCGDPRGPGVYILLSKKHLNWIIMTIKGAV
Description: (§1) Inactivation rates of serine proteases by substituted isocoumarins were measured by the incubation method. An aliquot of inhibitor (25 or 50 μl) in Me2 SO was added to a buffered enzyme solution (0.01-2.3 μM) to initiate the inactivation. Aliquots (50-100 μl) were withdrawn at various intervals and the residual enzymatic activity was measured. Me2 SO concentration in the reaction mixture was 8-12% (v/v). 0.1M Hepes, 0.5M NaCl, pH 7.5 buffer was utilized for the assays of chymotrypsin, cathepsin G (cat G), porcine pancreatic elastase (PPE), human leukocyte elastase (HLE) and rat granule serine proteases. 0.1M Hepes, 0.01M CaCl2, pH 7.5 buffer was utilized for the assays of trypsin and human recombinant (HR) granzyme A. The inhibitor concentrations are shown in the Tables I and II. Peptide nitroanilides with appropriate sequence were used as substrates for various serine proteases. All peptide 4-nitroanilide hydrolysis was measured at 410 nm (ε410 =8800M^-1 cm^-1; Erlanger et al., Arch. Biochem. Biophys. 95, pp 271-278 (1961), incorporated herein by reference). Peptide thioester hydrolysis rates were measured with assay mixtures containing 4,4'-dithiodipyridine (ε324 =19800M^-1 cm^-1; Grasetti & Murray, Arch. Biochem. Biophys. 119, pp. 41-49 (1967), incorporated herein by reference). First order inactivation rate constant (kobs) were obtained from plots of ln (vt /vo) vs time, and the correlation coefficients were greater than 0.98.
(§2) ^a Inhibition was measured in 0.1 M Hepes, 0.5 M NaCl (or 0.01 M
(§3) CaCl2), pH 7.5 buffer, 5-10% Me2 SO and at 25° C.
(§4) ZGlu-Phe-Arg-NA (0.032 mM) was a substrate for trypsin. ZArg-SBzl (0.120
mM) was a substrate for human recombinant (HR) granzyme A.
^g Inhibitor concentrations were 160-210 μM.
(§5) ^h No inhibition after 10 min of incubation of inhibitor and enzyme.
(§6) ^i Percentage of inhibition after 10 min of incubation of inhibitor

[2] = molecular target: T2, cathepsin G (cat G) (Homo sapiens, UniProt P08311); assay: Inactivation of cathepsin G by biotin-isocoumarins (incubation method); format: biochemical; conditions: inhibitor 75-400 μM, pH 7.5, 25° C.; for kinact/KI: NI = no inhibition after 10 min of incubation, read-out: kobs/[I] Cat. G
T2 sequence (P08311 21-255): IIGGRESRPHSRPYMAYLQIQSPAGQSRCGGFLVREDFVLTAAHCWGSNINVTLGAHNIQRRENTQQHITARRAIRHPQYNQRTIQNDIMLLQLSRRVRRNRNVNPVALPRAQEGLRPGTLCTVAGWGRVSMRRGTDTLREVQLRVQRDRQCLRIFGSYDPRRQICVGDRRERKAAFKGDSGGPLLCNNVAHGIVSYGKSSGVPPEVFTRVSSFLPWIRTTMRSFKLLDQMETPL
Description: as §1, §2, §3
(§7) SucVal-Pro-NA (0.48 mM) was used as the substrate for chymotrypsin and ca
(§8) G. MeOSuc-Ala-Ala-Pro-Val-NA (0.24-0.47 mM) and SucAla-Ala-Ala-NA
^c Inhibitor concentrations were 75-400 μM.
as §5, §6

[3] = molecular target: T3, human leukocyte elastase (HLE) (Homo sapiens, UniProt P08246); assay: Inactivation of human leukocyte elastase by biotin-isocoumarins (incubation method); format: biochemical; conditions: inhibitor 1.6-210 μM; pH 7.5, 25° C.; read-out: kobs/[I] HLE
T3 sequence (P08246 30-267): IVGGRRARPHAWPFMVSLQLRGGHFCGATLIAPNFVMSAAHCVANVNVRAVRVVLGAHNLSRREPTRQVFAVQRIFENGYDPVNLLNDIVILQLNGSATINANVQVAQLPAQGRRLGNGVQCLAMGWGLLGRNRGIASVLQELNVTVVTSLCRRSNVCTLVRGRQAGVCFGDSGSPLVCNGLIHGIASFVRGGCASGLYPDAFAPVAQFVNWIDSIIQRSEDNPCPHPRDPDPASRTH
Description: as §1, §2, §3, §8
(§9) (0.29-0.48 mM) were used as the substrate for HLE and PPE respectively.
^d Inhibitor concentrations were 1.6-210 μM.

[4] = molecular target: Rat Granule Tryptase; assay: Inhibition of rat granule tryptase; format: biochemical; conditions: [I] 0.078 mM or 0.2 mM as per table line; pH 7.5, 10% Me2SO, 25° C.
Description: as §1, with “First order inactivation rate constant (kobs) were obtained from plots of ln (vt /vo) vs time, and the correlation coefficients were greater than 0.98.” left out
(§10) ^a Inhibition was measured in 0.1 M Hepes, 0.5 M NaCl, pH 7.5 buffer, […]

[5] = system: Rat Granule Chymase; assay: Inhibition of rat granule chymase; format: biochemical; conditions: [I] 0.078 mM; inhibition not time dependent; pH 7.5, 10% Me2SO, 25° C.
Description: as §1, with “First order inactivation rate constant (kobs) were obtained from plots of ln (vt /vo) vs time, and the correlation coefficients were greater than 0.98.” left out
as §10

[6] = molecular target: T4, chymotrypsin (Bos taurus, UniProt P00766); assay: Effect of streptavidin and avidin on reactivation of inhibited chymotrypsin; format: biochemical, bovine; conditions: monitored for two days
Description: (§11) ^a Percentage of regained enzymatic activity was measured in 0.1 M
(§12) Hepes, 0.5 M NaCl, pH 7.5 buffer, 8% Me2 SO and at 25° C.
(§13) Excess inhibitor was removed from enzymeinhibitor mixture by
(§14) centrifugation twice with Amicon microconcentrator10. Then 3-4 units of
(§15) avidin or strepavidin was added and enzymatic activity was monitored for […]

[7] = system: Rat Granule Chymase; assay: Reactivation of inhibited rat granule chymase with NH2OH; format: biochemical; conditions: 0.4 M NH2OH, immediately after addition
Description: (§16) ^a Inhibition was performed at 0.1 M Hepes, 0.5 M NaCl, pH 7.5 buffer
(§17) 10% Me2 SO and 25° C. Reactivation was carried out in the
presence of 0.4 M of NH2 OH, and occurred immediately after the […]

[8] = molecular target: T5, trypsin (Bos taurus, UniProt P00760); assay: Inactivation of trypsin by biotin-isocoumarins (incubation method); format: biochemical; conditions: inhibitor 41-42 μM; 0.1 M Hepes, 0.01 M CaCl2, pH 7.5, 25° C.; read-out: kobs/[I] Trypsin
T5 sequence (P00760 24-246): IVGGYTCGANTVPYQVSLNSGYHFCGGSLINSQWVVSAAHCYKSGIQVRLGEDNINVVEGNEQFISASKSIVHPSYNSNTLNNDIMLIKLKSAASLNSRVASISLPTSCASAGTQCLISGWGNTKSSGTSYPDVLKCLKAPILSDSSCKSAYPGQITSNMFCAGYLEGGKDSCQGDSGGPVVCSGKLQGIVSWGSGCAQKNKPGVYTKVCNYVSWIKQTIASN
Description: as §1, §2, §3, §4
^f Inhibitor concentrations were 41-42 μM.

[9] = molecular target: T4, chymotrypsin; assay: Reactivation of inhibited chymotrypsin in buffer and with NH2OH; format: biochemical, bovine
Description: as §16, §17
(§18) presence of 0.4 M of NH2 OH, and occurred immediately after the
(§19) ^b Enzyme activity was measured after removal of excess inhibitor by
(§20) centrifugation at 0° C. with centricon10 microconcentrator and
(§21) staying at 25° C. for two days.

[10] = molecular target: T6, PPE (Sus scrofa, UniProt P00772); assay: Elution of inhibited PPE from avidin-agarose column with NH2OH; format: biochemical, porcine
T6 sequence (P00772 27-266): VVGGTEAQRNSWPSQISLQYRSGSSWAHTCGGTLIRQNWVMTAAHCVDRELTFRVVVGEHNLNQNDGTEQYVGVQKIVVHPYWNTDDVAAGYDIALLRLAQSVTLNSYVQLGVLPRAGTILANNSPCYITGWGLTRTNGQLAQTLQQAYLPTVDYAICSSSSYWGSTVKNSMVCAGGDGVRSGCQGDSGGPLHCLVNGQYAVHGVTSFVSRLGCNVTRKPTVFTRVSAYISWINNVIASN
Description: Elution of inhibited PPE by 7-[6-(6-biotinylaminocaproyl)aminocaproyl]amino-4-chloro-3-methoxyisocoumarin from avidin-agarose column with NH2 OH.
PPE (1 mg, […]) was inhibited by biotinylated isocoumarin (0.5 mmole) in 0.1M Hepes, 0.5M NaCl, pH 7.5 buffer at 25° C. for 10 min, 7% of residual enzyme activity was found. Excess of inhibitors was removed by Sephadex G-25 column and the inhibited PPE was eluted with 0.1M acetate, 0.5M NaCl, pH 5.0 buffer and had 16% of enzyme activity. This inhibited enzyme solution was then applied on the avidin-agarose column and 34% of protein went through (measured by optical density at 280 nm). The column was washed with pH 5.0 acetate buffer, then eluted with 0.1M Hepes, 0.5M NaCl, and 0.5M NH2 OH, pH 7.5 buffer and 37% of protein was eluted out (measured by OD280) from the column. In these protein fractions, 40% of PPE activity was detected.

[11] = molecular target: T6, PPE; assay: Reactivation of inhibited PPE in buffer and with NH2OH; format: biochemical, porcine
Description: as §16, §17, §18, §19, §20, §21

[12] = molecular target: porcine pancreatic elastase (PPE) (Sus scrofa, UniProt P00772); assay: Inactivation of porcine pancreatic elastase by biotin-isocoumarins (incubation method); format: biochemical; conditions: inhibitor 38-78 μM; pH 7.5, 25° C.; NI = no inhibition after 10 min of incubation; read-out: kobs/[I] PPE
porcine pancreatic elastase (PPE), sequence (P00772 27-266): as above
Description: as §1, §2, §3, §8, §9
^e Inhibitor concentrations were 38-78 μM.
as §5

[13] = molecular target: T6, PPE; assay: Effect of streptavidin and avidin on reactivation of inhibited PPE; format: biochemical, porcine; conditions: monitored for two days
Description: as §11, §12, §13, §14, §15

[14] = molecular target: T4, chymotrypsin; assay: Inactivation of chymotrypsin by biotin-isocoumarins (incubation method); format: biochemical, bovine; conditions: pH 7.5, inhibitor 20-400 μM; 0.1 M Hepes, 0.5 M NaCl, pH 7.5, 5-10% Me2SO, 25° C.; two values given for some compounds; read-out: kobs/[I] Chymotrypsin
Description: as §1, §2, §3, §7
^b Inhibitor concentrations were 20-400 μM.

[15] = 3-4 units streptavidin, 2880 min
[16] = 0.4 M NH2OH, immediately after addition

Structure (SMILES): O=C(CCCCC1SCC2NC(=O)NC21)NCCNC(=O)CNC(=O)Nc1ccc2c(Cl)c(OCCc3ccccc3)oc(=O)c2c1 (centres unmarked) [Compound 8, 7-biotin-NH(CH2)2 NH--COCH2 NHCONH-4-chloro-3-(2-phenylethoxy)isocoumarin]
Percentage of inhibition of HR Granzyme A after 10 min of incubation of inhibitor and enzyme [1]: 18%
Percentage of inhibition of Cat. G after 10 min of incubation of inhibitor and enzyme ([2]; 10 min): 19%
kinact/KI [3]: 6.6 M⁻¹ s⁻¹

Structure (SMILES): O=C(CCCCCNC(=O)CCCCC1SCC2NC(=O)NC21)NCCCCCC(=O)Nc1ccc2c(Cl)c(OCCc3ccccc3)oc(=O)c2c1 (centres unmarked) [Compound 7, 7-[6-(6-biotinylaminocaproyl)aminocaproyl]-amino-4-chloro-3-(2-phenylethoxy)-isocoumarin]
kinact/KI [3]: 230 M⁻¹ s⁻¹

Structure (SMILES): CCCOc1oc(=O)c2cc(NC(=O)CCCC[C@@H]3SC[C@@H]4NC(=O)N[C@@H]43)ccc2c1Cl [Compound 2, 7-biotinylamino-4-chloro-3-propoxyisocoumarin]
% of Enzyme Activity Reactivated, PPE +NH2OH [11, 16]: 98%
% of Enzyme Activity Reactivated, PPE in buffer ([11]; after removal of excess inhibitor, 25° C. for two days, 2880 min): 35%
kinact/KI [2]: 6.7 M⁻¹ s⁻¹
kinact/KI [12]: 470 M⁻¹ s⁻¹
kinact/KI [8]: 2.2 M⁻¹ s⁻¹
% of Regained Enzyme Activity, PPE, +Avidin ([13]; 3-4 units avidin, 2880 min): 32%
% of Regained Enzyme Activity, PPE, +Streptavidin [13, 15]: 51%
% of Regained Enzyme Activity, PPE, Buffer ([13]; pH 7.5, 8% Me2SO, 25° C.): 35%
kinact/KI [14]: 65 M⁻¹ s⁻¹
kinact/KI [3]: 19900 M⁻¹ s⁻¹

The next lines start with the values.

Rat Granule Tryptase kobs/[I] [4]: 6 to 12 M⁻¹ s⁻¹
Rat Granule Chymase % of inhibition [5]: 30-50%
% of Regained Enzyme Activity, Chymotrypsin, +Streptavidin [6, 15]: 39%
% of Regained Enzyme Activity, Chymotrypsin, Buffer ([6]; pH 7.5, 8% Me2SO, 25° C.): 15%
% of Enzyme Activity Reactivated, Rat granule chymase +NH2OH [7]: 30-50%
kinact/KI [8]: 1 M⁻¹ s⁻¹
kinact/KI [3]: 670 M⁻¹ s⁻¹
% of Enzyme Activity Reactivated, Chymotrypsin +NH2OH [9, 16]: 100%
% of Enzyme Activity Reactivated, Chymotrypsin in buffer ([9]; after removal of excess inhibitor, 25° C. for two days): 10%
Structure (SMILES): O=C(CCCC[C@@H]1SC[C@@H]2NC(=O)N[C@@H]21)NCCCCCC(=O)Nc1ccc2c(Cl)c(OCCc3ccccc3)oc(=O)c2c1 [Compound 3, 7-(6-biotinylaminocaproyl)amino-4-chloro-3-(2-phenylethoxy)isocoumarin]

Percentage of inhibition of HR Granzyme A after 10 min of incubation of inhibitor and enzyme [1]: 5%
enzyme activity of inhibited PPE after Sephadex G-25 removal of excess inhibitor ([10]; eluted with 0.1M acetate, 0.5M NaCl, pH 5.0): 16%
PPE activity detected in eluted protein fractions ([10]; fractions eluted with 0.5M NH2OH): 40%
residual enzyme activity of PPE after inhibition ([10]; pH 7.5 buffer, 25° C., 10 min): 7%
kinact/KI [2]: 2.2 M⁻¹ s⁻¹
kinact/KI [3]: 37500 M⁻¹ s⁻¹
Structure (SMILES): COc1oc(=O)c2cc(NC(=O)CCCCCNC(=O)CCCCCNC(=O)CCCCC3SCC4NC(=O)NC43)ccc2c1Cl (centres unmarked) [Compound 6, 7-[6-(6-biotinylaminocaproyl)aminocaproyl]-amino-4-chloro-3-methoxyisocoumarin]
